Legend:
[1] = system: barnyardgrass; experiment: Test A preemergence; assay type: in vivo, Echinochloa crus-galli; details: for Barnyardgrass plant response rating: 500 g ai/ha
In short: (§1)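 Compounds in non-phytotoxic solvent with surfactant applied as soil spray preemergence, or postemergence to plants 2-10 cm at one- to two-leaf stage, in loam/sand. After approximately 10 days in greenhouse, injury rated visually versus untreated controls, 0 (no effect) to 100 (complete control).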

[2] = system: pigweed; experiment: Test A preemergence; assay type: in vivo, Amaranthus retroflexus; details: for Pigweed plant response rating (0 to 100 scale): 125 g ai/ha; for Pigweed plant response rating: 500 g ai/ha, 0 to 100 scale where 0 is no effect and 100 is complete control
In short: as §1

[3] = system: wheat; experiment: Test A preemergence; assay type: in vivo, Triticum aestivum; details: for Wheat plant response rating (0 to 100 scale): 125 g ai/ha; for Wheat plant response rating: 500 g ai/ha, 0 to 100 scale where 0 is no effect and 100 is complete control
In short: as §1

[4] = system: corn; experiment: Test A preemergence; assay type: in vivo, Zea mays; details: for Corn plant response rating: 500 g ai/ha
In short: as §1

[5] = system: barnyardgrass; experiment: Test A postemergence; assay type: in vivo, Echinochloa crus-galli; details: 0 to 100 scale where 0 is no effect and 100 is complete control; for Barnyardgrass plant response rating: 125 g ai/ha; for Plant response rating, Barnyardgrass: 500 g ai/ha
In short: as §1

[6] = system: giant foxtail; experiment: Test A postemergence; assay type: in vivo, Setaria faberii; details: 0 to 100 scale where 0 is no effect and 100 is complete control; for Foxtail, Giant plant response rating: 125 g ai/ha; for Plant response rating, Foxtail, Giant: 500 g ai/ha
In short: as §1

[7] = system: pigweed; experiment: Test A postemergence; assay type: in vivo, Amaranthus retroflexus; details: 0 to 100 scale where 0 is no effect and 100 is complete control; for Pigweed plant response rating: 125 g ai/ha; for Plant response rating, Pigweed: 500 g ai/ha
In short: as §1

[8] = system: wheat; experiment: Test A postemergence; assay type: in vivo, Triticum aestivum; details: 0 to 100 scale where 0 is no effect and 100 is complete control; for Wheat plant response rating: 125 g ai/ha; for Plant response rating, Wheat: 500 g ai/ha
In short: as §1

[9] = system: corn; experiment: Test A postemergence; assay type: in vivo, Zea mays; details: 0 to 100 scale where 0 is no effect and 100 is complete control; for Corn plant response rating: 125 g ai/ha; for Plant response rating, Corn: 500 g ai/ha
In short: as §1

[10] = system: rice; experiment: Test B flooded paddy test; assay type: in vivo, Oryza sativa; details: Flood, 250 g ai/ha; 0 to 100 scale where 0 is no effect and 100 is complete control
In short: (§2)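 Seedlings are raised to two leaves, flooded to a depth of 3 cm and dosed by adding the compound to the floodwater. Water level is kept constant, and plants are scored visually versus controls 13–15 days later (0 = no effect, 100 = complete control).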

[11] = system: sedge, umbrella; experiment: Test B flooded paddy test; assay type: in vivo, Cyperus difformis; details: Flood, 250 g ai/ha; 0 to 100 scale where 0 is no effect and 100 is complete control
In short: as §2

[12] = system: Heteranthera limosa; experiment: Test B flooded paddy test; assay type: in vivo; details: Flood, 250 g ai/ha; 0 to 100 scale where 0 is no effect and 100 is complete control
In short: as §2

[13] = system: galium; experiment: Test C postemergence; assay type: in vivo, Galium aparine; details: for Plant response rating (0 to 100), Galium: 16 g ai/ha, 0 is no effect, 100 is complete control; for Galium plant response rating: 31 g ai/ha, 13 to 15 days; for Galium plant response rating / Plant response rating, Galium: scale 0 to 100 (0 no effect, 100 complete control)
In short: (§3)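 Seeds are planted in blended loam soil and sand and treated preemergence, while seedlings in a peat moss/vermiculite medium receive postemergence sprays at 2 to 18 cm height. All plants stay in the greenhouse for 13 to 15 days before visual comparison with controls on a 0–100 scale.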

[14] = system: pigweed; experiment: Test C postemergence; assay type: in vivo, Amaranthus retroflexus; details: for Plant response rating (0 to 100), Pigweed: 16 g ai/ha, 0 is no effect, 100 is complete control; for Pigweed plant response rating: 31 g ai/ha, 13 to 15 days; for Pigweed plant response rating / Plant response rating, Pigweed: scale 0 to 100 (0 no effect, 100 complete control)
In short: as §3

[15] = system: barnyardgrass; experiment: Test C postemergence; assay type: in vivo, Echinochloa crus-galli; details: for Barnyardgrass plant response rating: 31 g ai/ha, 13 to 15 days; for Barnyardgrass plant response rating / Plant response rating, Barnyardgrass: scale 0 to 100 (0 no effect, 100 complete control)
In short: as §3

[16] = system: kochia; experiment: Test C postemergence; assay type: in vivo, Kochia scoparia; details: for Plant response rating (0 to 100), Kochia: 16 g ai/ha, 0 is no effect, 100 is complete control; for Kochia plant response rating: 31 g ai/ha, 13 to 15 days; for Kochia plant response rating / Plant response rating, Kochia: scale 0 to 100 (0 no effect, 100 complete control)
In short: as §3

[17] = system: velvetleaf; experiment: Test C postemergence; assay type: in vivo, Abutilon theophrasti; details: for Plant response rating (0 to 100), Velvetleaf: 16 g ai/ha, 0 is no effect, 100 is complete control; for Velvetleaf plant response rating: 31 g ai/ha, 13 to 15 days; for Velvetleaf plant response rating / Plant response rating, Velvetleaf: scale 0 to 100 (0 no effect, 100 complete control)
In short: as §3

[18] = 125 g ai/ha, 0 to 100 scale where 0 is no effect and 100 is complete control
[19] = 0 to 100 scale where 0 is no effect and 100 is complete control
[20] = 125 g ai/ha, postemergence, visual rating

Which results are given for Fc1cccc(Oc2ncc(Cl)cn2)c1-n1cc(Cl)cn1 [Compound 177]?
Plant response rating, Barnyardgrass [1, 18]: 70; Barnyardgrass plant response rating [1, 19]: 100; Pigweed plant response rating (0 to 100 scale) [2]: 100; Pigweed plant response rating [2]: 100; Wheat plant response rating (0 to 100 scale) [3]: 0; Wheat plant response rating [3]: 50; Plant response rating, Corn [4, 18]: 0; Corn plant response rating [4, 19]: 50; Barnyardgrass plant response rating [5]: 40; Plant response rating, Barnyardgrass [5]: 100; Foxtail, Giant plant response rating [6]: 80; Plant response rating, Foxtail, Giant [6]: 100; Pigweed plant response rating [7]: 100; Plant response rating, Pigweed [7]: 100; Wheat plant response rating [8]: 20; Plant response rating, Wheat [8]: 90; Corn plant response rating [9]: 40; Plant response rating, Corn [9]: 70; Plant response rating, Rice [10]: 15; Plant response rating, Sedge, Umbrella [11]: 100; Plant response rating, Ducksalad [12]: 90; Plant response rating (0 to 100), Galium ([13]; postemergence): 60; Galium plant response rating ([13]; postemergence, visual rating): 50; Plant response rating, Galium [13, 20]: 98; Plant response rating, Galium ([13]; Postemergence, 62 g ai/ha): 85; Plant response rating (0 to 100), Pigweed ([14]; postemergence): 75; Pigweed plant response rating ([14]; postemergence, visual rating): 80; Plant response rating, Pigweed [14, 20]: 95; Plant response rating, Pigweed ([14]; Postemergence, 62 g ai/ha): 85; Plant response rating (0 to 100), Barnyardgrass ([15]; 16 g ai/ha, postemergence, 0 is no effect, 100 is complete control): 5; Barnyardgrass plant response rating ([15]; postemergence, visual rating): 5; Plant response rating, Barnyardgrass [15, 20]: 10; Plant response rating, Barnyardgrass ([15]; Postemergence, 62 g ai/ha): 10; Plant response rating (0 to 100), Kochia ([16]; postemergence): 70; Kochia plant response rating ([16]; postemergence, visual rating): 70; Plant response rating, Kochia [16, 20]: 95; Plant response rating, Kochia ([16]; Postemergence, 62 g ai/ha): 90; Plant response rating (0 to 100), Velvetleaf ([17]; postemergence): 50; Velvetleaf plant response rating ([17]; postemergence, visual rating): 70; Plant response rating, Velvetleaf [17, 20]: 80; Plant response rating, Velvetleaf ([17]; Postemergence, 62 g ai/ha): 70

How did the “Barnyardgrass plant response rating (0 to 100 scale, 0 is no effect, 100 is complete control)” value ([1]; 125 g ai/ha) turn out when Cc1cnc(Oc2cccc(C#N)c2-n2cc(C(F)(F)F)cn2)nc1 [Compound 180] was run?
Its value is 100.

And the “Barnyardgrass plant response rating” value [1, 19]?
Its value is 100.

What about the “Pigweed plant response rating (0 to 100 scale)” value [2] of the same molecule?
Its value is 100.

And the “Pigweed plant response rating” value [2]?
Its value is 100.

What about the “Wheat plant response rating (0 to 100 scale)” value [3] of the same molecule?
Its value is 20.

And the “Wheat plant response rating” value [3]?
The value was 80.

What about the “Corn plant response rating (0 to 100 scale)” value ([4]; 125 g ai/ha) of the same molecule?
The value was 60.

And the “Corn plant response rating” value [4, 19]?
Its value is 90.

What about the “Barnyardgrass plant response rating” value [5] of the same molecule?
The value was 90.

What about the “Plant response rating, Barnyardgrass” value [5] of the same molecule?
The value was 100.

What about the “Foxtail, Giant plant response rating” value [6] of the same molecule?
Its value is 90.

What about the “Plant response rating, Foxtail, Giant” value [6] of the same molecule?
Its value is 90.

What about the “Pigweed plant response rating” value [7] of the same molecule?
Its value is 100.

And the “Plant response rating, Pigweed” value [7]?
Its value is 100.

And the “Wheat plant response rating” value [8]?
The value was 40.

What about the “Plant response rating, Wheat” value [8] of the same molecule?
Its value is 80.

And the “Corn plant response rating” value [9]?
The value was 70.

What about the “Plant response rating, Corn” value [9] of the same molecule?
The value was 90.

What about the “Plant response rating, Rice” value [10] of the same molecule?
The value was 40.

What about the “Plant response rating, Sedge, Umbrella” value [11] of the same molecule?
The value was 80.

And the “Plant response rating, Ducksalad” value [12]?
Its value is 80.

What about the “Plant response rating (0 to 100), Galium” value ([13]; postemergence) of the same molecule?
The value was 50.

What about the “Galium plant response rating” value ([13]; postemergence, visual rating) of the same molecule?
The value was 55.

And the “Plant response rating, Galium” value [13, 20]?
The value was 90.

What about the “Plant response rating, Galium” value ([13]; Postemergence, 62 g ai/ha) of the same molecule?
Its value is 60.

What about the “Plant response rating (0 to 100), Pigweed” value ([14]; postemergence) of the same molecule?
The value was 10.

And the “Pigweed plant response rating” value ([14]; postemergence, visual rating)?
Its value is 55.

What about the “Plant response rating, Pigweed” value [14, 20] of the same molecule?
Its value is 70.

What about the “Plant response rating, Pigweed” value ([14]; Postemergence, 62 g ai/ha) of the same molecule?
The value was 60.

What about the “Barnyardgrass plant response rating” value ([15]; postemergence, visual rating) of the same molecule?
Its value is 5.

And the “Plant response rating, Barnyardgrass” value [15, 20]?
Its value is 20.

And the “Plant response rating, Barnyardgrass” value ([15]; Postemergence, 62 g ai/ha)?
The value was 5.

And the “Plant response rating (0 to 100), Kochia” value ([16]; postemergence)?
Its value is 40.

What about the “Kochia plant response rating” value ([16]; postemergence, visual rating) of the same molecule?
The value was 50.

And the “Plant response rating, Kochia” value [16, 20]?
The value was 60.

What about the “Plant response rating, Kochia” value ([16]; Postemergence, 62 g ai/ha) of the same molecule?
Its value is 50.

And the “Plant response rating (0 to 100), Velvetleaf” value ([17]; postemergence)?
The value was 30.

And the “Velvetleaf plant response rating” value ([17]; postemergence, visual rating)?
The value was 40.

And the “Plant response rating, Velvetleaf” value [17, 20]?
Its value is 85.

And the “Plant response rating, Velvetleaf” value ([17]; Postemergence, 62 g ai/ha)?
Its value is 65.

— patent US9695155B2, “Herbicidal substituted pyrimidinyloxy benzene compounds” (E. I. DU PONT DE NEMOURS AND COMPANY, priority 2013, dated 2017)
